Results taken from PubChem BioAssay AID1963970 (Molecular Pharmacology Branch, DTP, NCI, 2024).
Blank lines part the entries; values can stand above or below the compound they belong to.

System: 931267-113-T-J1-PDC multicell spheroid viability
Experiment: Anticancer human tumor 931267-113-T-J1-PDC patient-derived colon adenocarcinoma cell line growth inhibition [PI3K]
Conditions: for IC50: curve of first compound; for viability, T/C: stronger effect = lower value
In short: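 Tumor cells grown as multi-cell spheroids with HUVEC endothelial cells and MSC fibroblast-like stroma were treated with targeted agents combined with inavolisib, alpelisib, duvelisib or copanlisib. Doses fell in half-log steps from near clinical Cmax, else from 10 microM. Viability was measured.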

[1] = second compound 0.0316 µM, first compound 0.0316 µM
[2] = second compound 0.0316 µM, first compound 0.1 µM
[3] = second compound 0.0316 µM, first compound 0.316 µM
[4] = second compound 0.0316 µM, first compound 1 µM
[5] = second compound 0.0316 µM, first compound 3.16 µM
[6] = second compound 0.0316 µM, first compound 10 µM
[7] = second compound 0.1 µM, first compound 0.0316 µM
[8] = second compound 0.1 µM, first compound 0.1 µM
[9] = second compound 0.1 µM, first compound 0.316 µM
[10] = second compound 0.1 µM, first compound 1 µM
[11] = second compound 0.1 µM, first compound 3.16 µM
[12] = second compound 0.1 µM, first compound 10 µM
[13] = second compound 0.316 µM, first compound 0.0316 µM
[14] = second compound 0.316 µM, first compound 0.1 µM
[15] = second compound 0.316 µM, first compound 0.316 µM
[16] = second compound 0.316 µM, first compound 1 µM
[17] = second compound 0.316 µM, first compound 3.16 µM
[18] = second compound 0.316 µM, first compound 10 µM
[19] = second compound 1 µM, first compound 0.0316 µM
[20] = second compound 1 µM, first compound 0.1 µM
[21] = second compound 1 µM, first compound 0.316 µM
[22] = second compound 1 µM, first compound 1 µM
[23] = second compound 1 µM, first compound 3.16 µM
[24] = second compound 1 µM, first compound 10 µM
[25] = second compound 3.16 µM, first compound 0.0316 µM
[26] = second compound 3.16 µM, first compound 0.1 µM
[27] = second compound 3.16 µM, first compound 0.316 µM
[28] = second compound 3.16 µM, first compound 1 µM
[29] = second compound 3.16 µM, first compound 3.16 µM
[30] = second compound 3.16 µM, first compound 10 µM
[31] = second compound 10 µM, first compound 0.0316 µM
[32] = second compound 10 µM, first compound 0.1 µM
[33] = second compound 10 µM, first compound 0.316 µM
[34] = second compound 10 µM, first compound 1 µM
[35] = second compound 10 µM, first compound 3.16 µM
[36] = second compound 10 µM, first compound 10 µM
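Further: viability read 7 days after compound addition.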

IC50 (second compound 0.0316 µM): 6.07 µM
IC50 (second compound 0.1 µM): 6.04 µM
IC50 (second compound 0.316 µM): 6.07 µM
IC50 (second compound 1 µM): 5.96 µM
IC50 (second compound 3.16 µM): 5.92 µM
IC50 (second compound 10 µM): 5.69 µM
SMILES: CCCS(=O)(=O)Nc1ccc(F)c(C(=O)c2c[nH]c3ncc(-c4ccc(Cl)cc4)cc23)c1F + CC(Nc1ncnc2nc[nH]c12)c1cc2cccc(Cl)c2c(=O)n1-c1ccccc1
viability, T/C [1]: 102%
viability, T/C [2]: 101%
viability, T/C [3]: 104%
viability, T/C [4]: 125%
viability, T/C [5]: 112%
viability, T/C [6]: 4.93%
viability, T/C [7]: 101%
viability, T/C [8]: 111%
viability, T/C [9]: 103%
viability, T/C [10]: 107%
viability, T/C [11]: 119%
viability, T/C [12]: 4.62%
viability, T/C [13]: 107%
viability, T/C [14]: 103%
viability, T/C [15]: 109%
viability, T/C [16]: 122%
viability, T/C [17]: 110%
viability, T/C [18]: 3.9%
viability, T/C [19]: 102%
viability, T/C [20]: 93.9%
viability, T/C [21]: 113%
viability, T/C [22]: 110%
viability, T/C [23]: 109%
viability, T/C [24]: 4.52%
viability, T/C [25]: 99.2%
viability, T/C [26]: 99.9%
viability, T/C [27]: 102%
viability, T/C [28]: 116%
viability, T/C [29]: 104%
viability, T/C [30]: 5.3%
viability, T/C [31]: 92.3%
viability, T/C [32]: 95.2%
viability, T/C [33]: 99.6%
viability, T/C [34]: 108%
viability, T/C [35]: 97.7%
viability, T/C [36]: 4.17%

IC50 (second compound 0.0316 µM): 4.76 µM
IC50 (second compound 0.1 µM): 3.57 µM
IC50 (second compound 0.316 µM): 2.38 µM
IC50 (second compound 1 µM): 1.47 µM
IC50 (second compound 3.16 µM): 0.65 µM
IC50 (second compound 10 µM): 0.143 µM
SMILES: Cn1nccc1Nc1nccc(-c2ccn(C(CO)c3ccc(Cl)c(F)c3)c(=O)c2)n1 (centres undefined) + Cc1nc(NC(=O)N2CCCC2C(N)=O)sc1-c1ccnc(C(C)(C)C(F)(F)F)c1
viability, T/C [1]: 94.7%
viability, T/C [2]: 90.4%
viability, T/C [3]: 92.4%
viability, T/C [4]: 77.2%
viability, T/C [5]: 57.5%
viability, T/C [6]: 37.3%
viability, T/C [7]: 102%
viability, T/C [8]: 88.4%
viability, T/C [9]: 82.8%
viability, T/C [10]: 68.9%
viability, T/C [11]: 52.9%
viability, T/C [12]: 31.7%
viability, T/C [13]: 90.3%
viability, T/C [14]: 92.2%
viability, T/C [15]: 77.9%
viability, T/C [16]: 68%
viability, T/C [17]: 43.9%
viability, T/C [18]: 27.5%
viability, T/C [19]: 86.4%
viability, T/C [20]: 78.5%
viability, T/C [21]: 71.4%
viability, T/C [22]: 54%
viability, T/C [23]: 39.5%
viability, T/C [24]: 19.1%
viability, T/C [25]: 74.9%
viability, T/C [26]: 65.2%
viability, T/C [27]: 58.1%
viability, T/C [28]: 43.6%
viability, T/C [29]: 36.3%
viability, T/C [30]: 15.2%
viability, T/C [31]: 57%
viability, T/C [32]: 50.7%
viability, T/C [33]: 45.2%
viability, T/C [34]: 39.4%
viability, T/C [35]: 26.4%
viability, T/C [36]: 14.3%
